Experimental data from PubChem BioAssay (NCI).
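In this assay, cells in 96-well plates receive the compound at five concentrations for 48 hours. Endpoints are linearly interpolated between the surrounding concentrations. Definition used: TGI = concentration required for complete inhibition of growth.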

What was measured:
Assay in all cases: NCI anticancer screen, dose series, 48 h
[1] = tested on: SF-539 CNS
[2] = tested on: OVCAR-5 ovarian
[3] = tested on: PC-3 prostate
[4] = tested on: OVCAR-4 ovarian
[5] = tested on: UACC-257 melanoma
[6] = tested on: EKVX NSCLC
[7] = tested on: SF-295 CNS
[8] = tested on: CCRF-CEM leukemia
[9] = tested on: 786-0 renal
[10] = tested on: SNB-19 CNS
[11] = tested on: SN12C renal
[12] = tested on: SK-OV-3 ovarian
[13] = tested on: CAKI-1 renal
[14] = tested on: SK-MEL-5 melanoma
[15] = tested on: SK-MEL-2 melanoma
[16] = tested on: COLO 205 colon
[17] = tested on: UACC-62 melanoma
[18] = tested on: LOX IMVI melanoma
[19] = tested on: A549 NSCLC
[20] = tested on: U251 CNS
[21] = tested on: HCT-116 colon
[22] = tested on: DU-145 prostate
[23] = tested on: MDA-N
[24] = tested on: SNB-75 CNS
[25] = tested on: TK-10 renal
[26] = tested on: SR leukemia
[27] = tested on: HT29 colon
[28] = tested on: IGROV1 ovarian
[29] = tested on: NCI-H460 lung
[30] = tested on: KM12 colon
[31] = tested on: RXF 393 renal
[32] = tested on: HL-60(TB) leukemia
[33] = tested on: OVCAR-8 ovarian
[34] = tested on: HOP-62 NSCLC
[35] = tested on: SK-MEL-28 melanoma
[36] = tested on: T-47D breast
[37] = tested on: HOP-92 NSCLC
[38] = tested on: UO-31 renal
[39] = tested on: MDA-MB-435
[40] = tested on: MDA-MB-231 breast
[41] = tested on: MALME-3M melanoma
[42] = tested on: RPMI-8226 leukemia
[43] = tested on: NCI-H522 lung
[44] = tested on: NCI-H23 lung
[45] = tested on: MOLT-4 leukemia
[46] = tested on: HCT-15 colon
[47] = tested on: SW-620 colon
[48] = tested on: SF-268 CNS
[49] = tested on: A498 renal
[50] = tested on: NCI/ADR-RES ovarian
[51] = tested on: HCC-2998 colon
[52] = tested on: HS 578T breast
[53] = tested on: ACHN renal
[54] = tested on: K-562 leukemia
[55] = tested on: OVCAR-3 ovarian
[56] = tested on: MCF7 breast
[57] = tested on: M14 melanoma
[58] = tested on: NCI-H226 lung
[59] = tested on: BT-549 breast

Structure (SMILES): S=C=Nc1ccc(CSc2nc3ccccc3[nH]2)cc1
- TGI [1]: 33.4 µM
- TGI [2]: 32.4 µM
- TGI [3]: 32 µM
- TGI [4]: 31.6 µM
- TGI [5]: 34.1 µM
- TGI [6]: 40.4 µM
- TGI [7]: 32.3 µM
- TGI [8]: 80.4 µM
- TGI [9]: 37.5 µM
- TGI [10]: 86.1 µM
- TGI [11]: 31.3 µM
- TGI [12]: 40.3 µM
- TGI [13]: 33.5 µM
- TGI [14]: 29.4 µM
- TGI [15]: 34.8 µM
- TGI [16]: 29 µM
- TGI [17]: 29.4 µM
- TGI [18]: 35.6 µM
- TGI [19]: 31 µM
- TGI [20]: 30.9 µM
- TGI [21]: 44.5 µM
- TGI [22]: 29.6 µM
- TGI [23]: 40.7 µM
- TGI [24]: 32 µM
- TGI [25]: 38.9 µM
- TGI [26]: 65.4 µM
- TGI [27]: 32.6 µM
- TGI [28]: 33.7 µM
- TGI [29]: 40.4 µM
- TGI [30]: 31.7 µM
- TGI [31]: 33.5 µM
- TGI [32]: > 100 µM
- TGI [33]: 32.3 µM
- TGI [34]: 32.1 µM
- TGI [35]: 37.3 µM
- TGI [36]: 31.8 µM
- TGI [37]: 32 µM
- TGI [38]: 34.8 µM
- TGI [39]: 33.9 µM
- TGI [40]: 51.6 µM
- TGI [41]: 32 µM
- TGI [42]: 52.5 µM
- TGI [43]: 19.1 µM
- TGI [44]: 32.7 µM
- TGI [45]: 55.1 µM
- TGI [46]: 28.4 µM
- TGI [47]: 31.4 µM
- TGI [48]: 37.8 µM
- TGI [49]: 46 µM
- TGI [50]: 33 µM
- TGI [51]: 32.1 µM
- TGI [52]: > 100 µM
- TGI [53]: 30.5 µM
- TGI [54]: > 100 µM

Structure (SMILES): Cc1cn(C2C=CC(COP(=O)(OCc3ccc([N+](=O)[O-])o3)N(C)CCCCCl)O2)c(=O)[nH]c1=O (stereo not given)
- TGI [1]: 12.3 µM
- TGI [2]: 30.9 µM
- TGI [3]: 27.8 µM
- TGI [4]: 17.2 µM
- TGI [5]: 18.4 µM
- TGI [7]: 30 µM
- TGI [8]: 25.4 µM
- TGI [55]: 4.8 µM
- TGI [9]: 23.1 µM
- TGI [10]: 21.3 µM
- TGI [11]: 23.2 µM
- TGI [12]: 24 µM
- TGI [13]: 37 µM
- TGI [14]: 3.26 µM
- TGI [15]: 12.9 µM
- TGI [16]: 9.87 µM
- TGI [17]: 17.3 µM
- TGI [18]: 13.5 µM
- TGI [56]: 19.6 µM
- TGI [19]: 22.8 µM
- TGI [20]: 18.2 µM
- TGI [21]: 20.8 µM
- TGI [22]: 26.1 µM
- TGI [23]: 11.8 µM
- TGI [24]: 10.8 µM
- TGI [25]: 34.3 µM
- TGI [26]: 4.83 µM
- TGI [27]: 27 µM
- TGI [28]: 12.7 µM
- TGI [29]: 23.6 µM
- TGI [30]: 24.1 µM
- TGI [31]: 11.3 µM
- TGI [32]: 32.3 µM
- TGI [33]: 32.4 µM
- TGI [34]: 30.9 µM
- TGI [35]: 22.4 µM
- TGI [36]: 7.05 µM
- TGI [37]: 10.9 µM
- TGI [38]: 31.1 µM
- TGI [39]: 4.42 µM
- TGI [40]: 25.9 µM
- TGI [41]: 7.36 µM
- TGI [42]: 14.1 µM
- TGI [43]: 3.97 µM
- TGI [44]: 10.7 µM
- TGI [57]: 17.3 µM
- TGI [45]: 26.4 µM
- TGI [46]: 35.7 µM
- TGI [47]: 27.1 µM
- TGI [48]: 23.8 µM
- TGI [50]: > 100 µM
- TGI [58]: 23.6 µM
- TGI [52]: 9.89 µM
- TGI [53]: 28.6 µM
- TGI [54]: 21.6 µM

Structure (SMILES): CCN(CC)Cc1ccccc1CC(=O)N1c2ccccc2C(=O)Nc2cccnc21
- TGI [1]: > 100 µM
- TGI [2]: > 100 µM
- TGI [3]: > 100 µM
- TGI [4]: > 100 µM
- TGI [5]: > 100 µM
- TGI [6]: > 100 µM
- TGI [7]: > 100 µM
- TGI [8]: > 100 µM
- TGI [55]: > 100 µM
- TGI [9]: > 100 µM
- TGI [10]: > 100 µM
- TGI [11]: > 100 µM
- TGI [12]: > 100 µM
- TGI [13]: > 100 µM
- TGI [14]: > 100 µM
- TGI [15]: > 100 µM
- TGI [16]: > 100 µM
- TGI [17]: > 100 µM
- TGI [18]: > 100 µM
- TGI [56]: > 100 µM
- TGI [19]: > 100 µM
- TGI [20]: > 100 µM
- TGI [21]: > 100 µM
- TGI [22]: > 100 µM
- TGI [23]: > 100 µM
- TGI [25]: > 100 µM
- TGI [26]: 72.2 µM
- TGI [27]: > 100 µM
- TGI [28]: > 100 µM
- TGI [29]: > 100 µM
- TGI [30]: > 100 µM
- TGI [31]: > 100 µM
- TGI [32]: > 100 µM
- TGI [33]: > 100 µM
- TGI [34]: > 100 µM
- TGI [35]: > 100 µM
- TGI [36]: > 100 µM
- TGI [37]: > 100 µM
- TGI [39]: > 100 µM
- TGI [40]: > 100 µM
- TGI [41]: > 100 µM
- TGI [42]: > 100 µM
- TGI [43]: > 100 µM
- TGI [44]: > 100 µM
- TGI [57]: > 100 µM
- TGI [45]: > 100 µM
- TGI [46]: > 100 µM
- TGI [47]: > 100 µM
- TGI [48]: > 100 µM
- TGI [49]: > 100 µM
- TGI [50]: > 100 µM
- TGI [58]: > 100 µM
- TGI [51]: > 100 µM
- TGI [52]: > 100 µM
- TGI [53]: > 100 µM
- TGI [54]: > 100 µM

Structure (SMILES): O=C(O)Cc1ccc(Nc2nc3ccccc3nc2C(=O)O)cc1
- TGI [1]: > 100 µM
- TGI [2]: > 100 µM
- TGI [3]: > 100 µM
- TGI [4]: > 100 µM
- TGI [5]: > 100 µM
- TGI [6]: > 100 µM
- TGI [7]: > 100 µM
- TGI [8]: > 100 µM
- TGI [55]: > 100 µM
- TGI [9]: > 100 µM
- TGI [10]: > 100 µM
- TGI [11]: > 100 µM
- TGI [12]: > 100 µM
- TGI [13]: > 100 µM
- TGI [14]: > 100 µM
- TGI [15]: > 100 µM
- TGI [16]: > 100 µM
- TGI [17]: > 100 µM
- TGI [18]: > 100 µM
- TGI [56]: > 100 µM
- TGI [19]: > 100 µM
- TGI [20]: > 100 µM
- TGI [21]: > 100 µM
- TGI [22]: > 100 µM
- TGI [23]: > 100 µM
- TGI [24]: > 100 µM
- TGI [25]: > 100 µM
- TGI [26]: > 100 µM
- TGI [27]: > 100 µM
- TGI [28]: > 100 µM
- TGI [29]: > 100 µM
- TGI [30]: > 100 µM
- TGI [31]: > 100 µM
- TGI [32]: > 100 µM
- TGI [33]: > 100 µM
- TGI [34]: > 100 µM
- TGI [35]: > 100 µM
- TGI [36]: > 100 µM
- TGI [37]: > 100 µM
- TGI [38]: > 100 µM
- TGI [39]: > 100 µM
- TGI [41]: > 100 µM
- TGI [43]: > 100 µM
- TGI [44]: > 100 µM
- TGI [57]: > 100 µM
- TGI [45]: > 100 µM
- TGI [46]: > 100 µM
- TGI [47]: > 100 µM
- TGI [48]: > 100 µM
- TGI [49]: > 100 µM
- TGI [50]: > 100 µM
- TGI [58]: > 100 µM
- TGI [59]: > 100 µM
- TGI [52]: > 100 µM
- TGI [53]: > 100 µM
